For data set [1], the system named is CD8+ T cells propagated from islets of acutely diabetic NOD mice. Description: Killing of peptide-pulsed RMA-SKd cells by islet-derived CD8+ T cell lines and clones. The data set is classed as cell-based. An excerpt:
To confirm that the islet associated CD8^+ T cells of most NOD mice contain clones capable of recognizing the NRP/Kd complex, we generated 31 CD8^+ CTL clones from islets of 9 NOD mice, and tested the clones' ability to kill NRP- or TUM-pulsed RMA-SKd cells. Of the 31 clones tested, 14 (45%) were cytotoxic against NRP-, but not TUM-pulsed, RMA-SKd targets (FIGS. 7B and C).

Another data set deals with 8.3-CD8+ T cells. Description: Repeated peptide administration to 8.3-TCRαβ-transgenic NOD mice. The settings on record: repeated administration via i.p. and f.p. routes; unpublished data. The format is in vivo.
In data set [2] the test system is 8.3-TCR on 8.3-CD8+ T cells. Description: Peptide/MHC tetramer binding to 8.3-CD8+ T cells. Details: species or system mouse (8.3-TCRαβ-transgenic NOD). From the text:
(§1) To confirm that these peptides were recognized with different avidity by 8.3-CD8^+ T cells, we produced and tested peptide/MHC tetramers as previously described (39). A tetramer is preferably used in avidity determinations because tetramers bind more strongly than the corresponding monomers, while maintaining the same relative avidities when a plurality of ligands are compared. […] These peptides were recognized with different avidity not only by 8.3-CD8^+ T cells, but also by the polyclonal NRP-reactive CD8^+ T cells that can be propagated from the pancreatic islets of 20 wk-old NOD mice.
(§2) In order to follow the accumulation of antigen-specific CD8^+ T cells in islets of pre-diabetic NOD mice, we generated H-2Kd tetramers containing the peptides NRP, NRP-A7, TUM or INS [LYLVCGERG; an insulin-derived peptide recognized by islet-associated T cells from young NOD mice (38)]. The NRP and NRP-A7 tetramers stained virtually all the splenic CD8^+ T cells from 8.3-TCRαβ-transgenic NOD mice, but <1% of the splenic CD8^+ T cells from NOD mice. The INS tetramer stained the INS-reactive CTL clone G9C8 (38), but neither this tetramer nor the negative control tetramer (TUM) stained the splenic CD8^+ T cells from NOD or 8.3-TCRαβ-transgenic NOD mice (data not shown).
To confirm that these peptides were recognized with different avidity by 8.3-CD8^+ T cells, we produced and tested peptide/MHC tetramers. […] These peptides were recognized with different avidity not only by 8.3-CD8^+ T cells, but also by the polyclonal NRP-reactive CD8^+ T cells that can be propagated from the pancreatic islets of 20 wk-old NOD mice.

Data set [3] concerns islet-derived CD8+ T cells. Kind of data set: Peptide/H-2Kd tetramer staining of islet-derived CD8+ T cells. The format is binding, NOD mice.
Source text: as §1
Since tetramer-reactive cells represent a very small fraction of all the islet-associated T cells, we analyzed the presence of tetramer-reactive clonotypes within the cell population that has undergone antigen-driven activation and thus is likely to contain autoreactive specificities. Islets from non-diabetic 5, 9, 15 and 20 wk-old NOD mice were cultured in the presence of rIL-2 for 6-7 d, to selectively expand IL-2R-positive T cells [˜10% of all the islet-associated CD8^+ T cells (30)]. There were age-dependent increases in the number of T cells recovered from NOD islets and in the % of CD8^+ T cells contained within lines. […]

Data set [4] has as its system naïve or activated 8.3-CD8+ T cells. Kind of data set: Functional testing of NRP mimics (proliferation, cytokine secretion, cytotoxicity, antagonism). The format is cell-based, mouse (8.3-TCRαβ-transgenic NOD). An excerpt: To test the validity of this hypothesis, we produced mimics of NRP capable of engaging the 8.3-TCR (a TCR that is representative of the TCRs used by NRP-reactive CD8^+ T cells in the NOD mouse) with very low or very high affinity (when compared to NRP and NRP-A7). This was done by generating numerous single amino acid mutants of NRP (NRP mimics) and by testing the ability of each mutant to elicit proliferation, cytokine secretion and cytotoxicity of naïve or activated 8.3-CD8^+ T cells. Some of the NRP mimics that were unable to elicit the activation of naïve 8.3-CD8^+ T cells were tested for antagonism. Antagonist mimics are unable to elicit the functional activity of T cells but antagonized the agonistic activity of functional mimics (i.e. NRP and NRP-A7). […] Of these, NRP-A4 was the most powerful and was chosen for further experimentation. […] FIG. 15 compares the agonistic properties of all these peptides on naïve 8.3-CD8^+ T cells.
To test the validity of this hypothesis, we produced mimics of NRP capable of engaging the 8.3-TCR (a TCR that is representative of the TCRs used by NRP-reactive CD8^+ T cells in the NOD mouse) with very low or very high affinity (when compared to NRP and NRP-A7). This was done by generating numerous single amino acid mutants of NRP (NRP mimics) and by testing the ability of each mutant to elicit proliferation, cytokine secretion and cytotoxicity of naïve or activated 8.3-CD8^+ T cells. Some of the NRP mimics that were unable to elicit the activation of naïve 8.3-CD8^+ T cells were tested for antagonism. Antagonist mimics are unable to elicit the functional activity of T cells but antagonized the agonistic activity of functional mimics (i.e. NRP and NRP-A7). […] Peptide-induced responses are color-coded from low, medium, […], high and very high (blue, yellow, green and red, respectively). The data are representative of 3 different experiments.
Of these, NRP-A4 was the most powerful and was chosen for further experimentation. […] FIG. 15 compares the agonistic properties of all these peptides on naïve 8.3-CD8^+ T cells.

Another data set relates to NOD mice. Description: Development of spontaneous autoimmune diabetes in peptide-treated NOD female mice. The format is in vivo. An excerpt: To test whether the hypothesis could in fact predict the different outcomes outlined in Table I, we treated groups of NOD female mice with repeated injections of NRP-A4, NRP-I4 and NRP-V7, and followed the mice for development of spontaneous autoimmune diabetes. T cells were also harvested from the treated mice and tested with various ligand/MHC tetramers to determine the impact of the treatment on T cell populations. […] Since these cells have higher diabetogenic potential (see above), it is likely that their accumulation into islets is the single mechanism that accounts for the accelerated onset of diabetes seen in NRP-I4-treated mice. […]
The hypothesis put forth above predicted that, in vivo, each of these peptides would trigger T cells differently depending on the T cells' avidity for NRP. This is summarized in Table I. To test whether the hypothesis could in fact predict the different outcomes outlined in Table I, we treated groups of NOD female mice with repeated injections of NRP-A4, NRP-I4 and NRP-V7, and followed the mice for development of spontaneous autoimmune diabetes. […] Since these cells have higher diabetogenic potential (see above), it is likely that their accumulation into islets is the single mechanism that accounts for the accelerated onset of diabetes seen in NRP-I4-treated mice.
To test the effect of dosage of the peptide ligands on T cell clonal delection or expansion, we treated groups of NOD female mice with repeated injections of “low” or “high” doses of TUM (negative control), NRP, NRP-A7, NRP-A4, NRP-I4 and NRP-V7. Low concentrations of peptide were prepared by resuspending 100 mg of dry peptide in PBS in the absence of acids. The peptides in these preparations, which were also used in previous Examples, are aggregated, and the effective concentrations were low. Soluble, high concentrations of peptide were prepared by diluting 100 mg of soluble peptide (solubilized in the presence of acid) in PBS. The mice were followed for development of spontaneous autoimmune diabetes.

In data set [5] the test system is NRP-A7-reactive CD8+ T cells. Kind of data set: Islet-associated CD8+ T cells of peptide-treated NOD mice (tetramer staining, binding kinetics, cytotoxicity). The format is in vivo. An excerpt:
To test whether the hypothesis could in fact predict the different outcomes outlined in Table I, we treated groups of NOD female mice with repeated injections of NRP-A4, NRP-I4 and NRP-V7, and followed the mice for development of spontaneous autoimmune diabetes. T cells were also harvested from the treated mice and tested with various ligand/MHC tetramers to determine the impact of the treatment on T cell populations. […] Since these cells have higher diabetogenic potential (see above), it is likely that their accumulation into islets is the single mechanism that accounts for the accelerated onset of diabetes seen in NRP-I4-treated mice.
To ascertain whether the NRP-A7 treatment had induced the deletion of NRP-A7-reactive CD8^+ T cells, we examined islets of peptide-treated, non-diabetic 32 wk-old mice for the presence of this T cell population. […] To determine whether this resulted from the absence of clonotypes bearing high affinity TCRs for NRP-A7, we compared the kinetics of NRP-A7 tetramer binding to CD8^+ T cells derived from peptide-treated mice. […] Since treatment with NRP-A7 also halted the progression from benign to pernicious islet inflammation, we concluded that development of IDDM in NOD mice requires the avidity maturation of the NRP-A7-reactive CD8^+ T cell population.
The effect of the peptides on T cell populations was also determined.

The test system of data set [6] is INS-reactive CTL clone G9C8. Kind of data set: Tetramer staining of CTL clone G9C8. Particulars: H-2Kd tetramer. The format is binding.
Source text: as §2

Entries after “also recorded” stand apart in the source; their conditions may differ. Peptide text beside a SMILES is read from it.

On to `CC(C)C[C@H](NC(=O)[C@H](Cc1ccccc1)NC(=O)[C@H](Cc1c[nH]c2ccccc12)NC(=O)[C@H](CC(N)=O)NC(=O)[C@H](C)NC(=O)[C@H](CCCCN)NC(=O)[C@H](CC(N)=O)NC(=O)[C@H](Cc1ccc(O)cc1)NC(=O)[C@@H](N)CCCCN)C(=O)O` [NRP, KYNKANWFL] (H-KYNKANWFL-OH; N-terminus and C-terminus assumed), for which the “islet-derived CD8+ CTL clones cytotoxic against peptide-pulsed RMA-SKd targets” value in data set [1] (14 of 31 clones from 9 NOD mice) is 45%.
For the compound KYNKANAFL [NRP-A7], the “effect on 8.3-CD8+ T cells” value in the data set on 8.3-CD8+ T cells is “induced the deletion of 8.3-CD8^+ T cells”. For the same compound, in data set [2], the “avidity class of the peptide” value is reported as “high avidity”. Moreover, in data set [2] (Table II), the “Avidity (of Function/Avidity)” value was “high”. Moreover, the “avidity of tetramer binding to 8.3-CD8+ T cells” value in data set [2] (peptide/MHC tetramer, proportional to fluorescence intensity of stained T cells) was “increased avidity”. In addition, the “splenic CD8+ T cells stained by tetramer” value in data set [2] (splenic CD8+ T cells from 8.3-TCRαβ-transgenic NOD mice) was “virtually all”. Besides, in data set [3] (by 15 wk, islets cultured with rIL-2 6-7 d), the “size of the tetramer-reactive CD8+ T cell population in islets” value is about 18%. In addition, the “number of islet-derived CD8+ T cells bound by tetramer, comparative” value in data set [3] (islets of 20 wk-old NOD mice) is recorded as “more cells bound the NRP-A7 than the NRP tetramers”. For the same compound, in data set [4], the “functional class of the peptide on 8.3-CD8+ T cells” value was “super-agonist”. In data set [4] (Table I), the Function entry is reported as “superagonist”. Moreover, the “Function (of Function/Avidity)” value in data set [4] (Table II) is “superagonist”. Further, the “agonistic/antagonistic activity, comparative statement” value in data set [4] (naive 8.3-CD8+ T cells) was “superior agonistic properties”. Also, the “Action (high dose)” value in the data set with NOD mice (Table II, effect on diabetes, high dose, repeated injections) is listed as “No effect”. Moreover, the “Action (low dose)” value in the data set on NOD mice (Table II, effect on diabetes, low dose, repeated injections) is given as “protective”. The “effect on diabetes at high dose/concentration” value with NOD mice (high concentration (acid-solubilized peptide in PBS), repeated injections) is “no effect; also recorded: rather ineffective; also recorded: did not efficiently protect the mice from diabetes”. Also, the “effect on diabetes at low dose/concentration” value in the data set with NOD mice (low concentration (aggregated peptide in PBS), repeated injections) is “anti-diabetogenic; also recorded: significant protective effect; also recorded: diabetes resistance”. In addition, the “development of IDDM/diabetes in treated NOD mice” value in the data set on NOD mice (repeated injections (100 μg in PBS i.p. in Example 6), low dosage according to b141) is “highly protected”. Moreover, in data set [5] (NRP-A7-pulsed RMA-SKd targets), the “cytotoxicity of islet-derived CD8+ T cells of treated mice” value is on record as “less cytotoxic to NRP-A7-pulsed, RMA-SKd targets than those derived from NRP- or control peptide-treated mice”. Moreover, the “insulin 15-23-reactive CD8+ T cells in islets of treated mice” value in data set [5] (b198: high concentration NRP-A7, low and high concentrations NRP-V7) is “significantly increased percentages of insulin 15-23 tetramer-reactive CD8^+ T-cells”. Further, the “effect on NRP-A7-reactive T cells in islets, high concentration” value in data set [5] (high concentration) is given as “nearly complete deletion of all NRP-A7-reactive cells”. Moreover, the “effect on NRP-A7-reactive T cells in islets, low concentration” value in data set [5] (low concentration) is listed as “fostered the accumulation of low avidity NRP-A7-reactive T-cells in islets”. Besides, the “effect of treatment on high/low avidity NRP-reactive CD8+ T cell subpopulations (conclusion)” value in data set [5] (repeated injections) is given as “blunted the avidity maturation of the NRP-A7-reactive CD8^+ T cell population; also recorded: promoted the expansion of the low avidity T cell subpopulation; also recorded: selectively eliminated those NRP-A7-reactive CD8^+ T cells expressing high affinity TCRs for NRP-A7”. In addition, in data set [5] (repeated injections, low dosage according to b141), the “NRP/NRP-A7 tetramer-reactive CD8+ T cells in islets of treated mice” value is “greater numbers of NRP-A7 tetramer-reactive cells than control peptide-treated mice”. Moreover, in data set [1] (reference 37), the “islet-associated CD8+ T cell clones recognizing the peptide” value worked out at 45% and the “islet-associated CD8+ T cell lines recognizing the peptide” value is 87%.
With “LYLVCGERG [INS, insulin-derived peptide recognized by islet-associated T cells from young NOD mice]”, the “tetramer staining of CTL clone G9C8” value in data set [6] is listed as “stained”.

Source of the values: patent publication US20030064413A1, “Compositions and methods useful in avidity therapy” (priority 2000, published 2003).
